Read-outs that look alike come from different tables or passages of the source.

The target of test [1] is T1, A2a receptors (Rattus norvegicus, UniProt P30543).
T1 construct: Displacement of specific [^3 H]; from tissue; host or cells: rat striatal membranes
In words: radioligand binding, displacement of specific [3H]CGS 21680 binding in rat striatal membranes. The note with it: for Ki: [3H]CGS 21680, rat striatal membranes.
Protocol: ^b Displacement of specific [^3 H]
or as a percentage of specific binding displaced at 100 μM.

In test [2] the target is T2, A1 receptors (Rattus norvegicus, UniProt P25099).
T2 sequence (P25099 1-326): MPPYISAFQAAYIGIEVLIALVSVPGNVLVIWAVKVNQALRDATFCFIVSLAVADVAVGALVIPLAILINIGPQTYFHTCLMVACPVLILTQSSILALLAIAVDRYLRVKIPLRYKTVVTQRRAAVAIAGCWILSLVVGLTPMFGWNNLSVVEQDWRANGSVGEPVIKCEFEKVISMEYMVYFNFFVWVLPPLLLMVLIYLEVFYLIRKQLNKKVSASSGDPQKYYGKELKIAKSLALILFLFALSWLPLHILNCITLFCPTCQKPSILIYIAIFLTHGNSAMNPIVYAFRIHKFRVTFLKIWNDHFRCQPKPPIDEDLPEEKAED
Nature of the test: biochemical. Conditions: for inhibition at 100 µM: 10^-4 M; for Ki: [3H]PIA, rat brain membranes, read-out: Ki rA1; for greater affinity to A1 than A2a adenosine receptors: selectivity in words. It is filed as binding.
Protocol: ^a Displacement of specific [^3 H] PIA binding in rat brain
percentage of specific binding displaced at 100 μM.

Setting [3] is: Table 12, 10^-4 M, read-out: % inhibition rA2A.
Setting [4] is: Table 12, 10^-4 M, read-out: displacement of specific binding rA2A.
Setting [5] is: Table 12, read-out: % inhibition rA1.
[6] abbreviates: Table 11, 10^-4 M, read-out: % inhibition rA2A.
Setting [7] is: Table 11, 10^-4 M, read-out: displacement of specific binding rA2A.

T1 sequence (P30543 whole entry): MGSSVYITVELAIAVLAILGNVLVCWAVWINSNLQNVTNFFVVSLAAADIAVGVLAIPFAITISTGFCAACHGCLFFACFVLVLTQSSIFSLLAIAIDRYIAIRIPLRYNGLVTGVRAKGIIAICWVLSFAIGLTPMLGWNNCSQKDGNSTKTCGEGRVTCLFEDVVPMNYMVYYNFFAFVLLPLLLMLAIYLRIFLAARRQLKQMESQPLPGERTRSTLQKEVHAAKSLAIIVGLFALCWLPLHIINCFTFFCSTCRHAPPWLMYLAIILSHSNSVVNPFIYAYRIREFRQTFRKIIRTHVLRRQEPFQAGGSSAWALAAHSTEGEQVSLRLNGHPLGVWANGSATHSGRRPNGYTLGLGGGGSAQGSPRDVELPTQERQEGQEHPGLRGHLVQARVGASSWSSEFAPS

In the case of `CCOC(=O)C1=C(C)NC(C)=C(C(=O)OC)C1c1ccc([N+](=O)[O-])cc1` (racemic) [Compound 67, 3-methyl-5-ethyl-2,6-dimethyl-4-(4-nitrophenyl)-1,4(R,S)-dihydropyridine-3,5-dicarboxylate], the Ki in test [1] (Table 9, read-out: Ki rA2A) worked out at 35.6 µM. Further, the inhibition at 100 µM in test [2] (Table 9, read-out: % of specific binding displaced rA1) came to 37 ± 14%.
As for `CCOC(=O)C1=C(C)NC(c2ccccc2)=C(C(=O)OCC)C1c1cccnc1` (racemic) [Compound 112, 3,5-Diethyl 2-methyl-4-(3-pyridyl)-6-phenyl-1,4-(±)-dihydropridine-3,5-dicarboxylate], the inhibition at 100 µM in test [1] (setting [3]) turned out to be 40%.
Consider `CCOC(=O)C1=C(C)NC(c2ccccc2)=C(C(=O)OCC)C1c1ccncc1` (racemic) [Compound 113, 3.5-Diethyl 2-methyl-4-(4-pyridyl)-6-phenyl-1,4(±)-dihydropyridine-3.5-dicarboxylate], for which the Ki in test [1] (Table 12, read-out: Ki rA2A) was 44.7 ± 3.7 µM.
Consider `CCOC(=O)C1=C(C)NC(c2ccccc2)=C(C(=O)OCC)C1c1cc2ccccc2o1` (racemic) [Compound 116, 3,5-Diethyl 2-methyl-4-(2-benzofuryl)-6-phenyl-1,4-(±)-dihydropridine-3,5-dicarboxylate], for which the inhibition at 100 µM in test [1] (setting [4]) was under 10%.
As to `CCOC(=O)C1=C(C)NC(c2ccccc2)=C(C(=O)OCC)C1C#Cc1cccc(C)c1` (racemic) [Compound 120, 3,5-Diethyl 2-methyl-4-(3-methylphenylethynyl)-6-phenyl-1,4-(±)-dihydropyridine-3,5-dicarboxylate], the inhibition at 100 µM in test [1] (setting [4]) is under 10%; in test [2] (setting [5]), 41%.
`CCOC(=O)C1=C(C)NC(c2ccccc2)=C(C(=O)OCc2ccccc2C)C1C#Cc1ccccc1` (racemic) [Compound 122a]: the results for the inhibition at 100 µM in test [1] (setting [3]) and in test [2] (setting [5]) were 13% and 16 ± 1%, respectively.
With `CCOC(=O)C1=C(C)NC(c2ccccc2)=C(C(=O)OCc2ccc([N+](=O)[O-])cc2)C1C#Cc1ccccc1` (racemic) [Compound 122g], the inhibition at 100 µM in test [2] (setting [5]) was determined as 29 ± 2%.
With `CCOC(=O)C1=C(C)NC(c2ccccc2)=C(C(=O)OCC[Si](C)(C)C)C1C#Cc1ccccc1` (racemic) [Compound 129, 3-Ethyl 5-(2-trimethylsilyl)-ethyl 2-methyl-4-phenylethynyl-6-phenyl-1,4-(±)-dihydropyridine-3,5-dicarboxylate], in test [1] (setting [3]), the inhibition at 100 µM came out at 18 ± 5%.
Consider `CCOC(=O)C1=C(C)NC(c2ccccc2)=C(C(=O)SCC)C1C#Cc1ccccc1` (racemic) [Compound 130a, 3-Ethyl 5-thioethyl 2-methyl-4-phenylethynyl-6-phenyl-1,4(±)-dihydropyridine-3,5-dicarboxylate], for which the inhibition at 100 µM in test [1] (setting [3]) came out at 17%.
With `CCNC(=O)C1=C(c2ccccc2)NC(C)=C(C(=O)OCC)C1C#Cc1ccccc1` (racemic) [Compound 132, 3-Ethoxycarbonyl-2-methyl-4-phenylethynyl-6-phenyl-1,4(±)-dihydropyridine-5-carboxylic ethyl amide], in test [1] (setting [3]), the inhibition at 100 µM is 47%.
For the compound `CCOC(=O)C1=C(c2ccccc2)NC(C)=C(C(=O)OC(C)(C)C)C1C#Cc1ccccc1` (racemic) [Compound 133, 3-t-Butyl 5-ethyl 2-methyl-4-phenylethynyl-6-phenyl-1,4-(±)-dihydropyridine-3,5-dicarboxylate], in test [1] (setting [3]), the inhibition at 100 µM was 20 ± 2%.
Regarding `CCNC(=O)C1=C(C)NC(c2ccccc2)=C(C(=O)OCC)C1C#Cc1ccccc1` (racemic) [Compound 134, 5-Ethoxycarbonyl-2-methyl-4-phenylethynyl-6-phenyl-1,4-(±)-dihydropyridine-3-carboxylic ethyl amide], the inhibition at 100 µM in test [1] (setting [3]) amounted to 19 ± 6%.
On to `CCOC(=O)C1=C(c2ccccc2)NC(C)=C(C(C)=O)C1C#Cc1ccccc1` (racemic) [Compound 135], for which, in test [1] (read-out: % inhibition rA2A), the inhibition at 100 µM came to 17 ± 7%.
Consider `CCOC(=O)C1=C(c2ccccc2)NC2=C(C(=O)CCC2)C1C#Cc1ccccc1` (racemic) [Compound 136, Ethyl 3-oxo-1,4,5,6,7,8-hexahydroquinoline-2-methyl-4-phenylethynyl-6-phenyl-1,4-±-dihydropyridin-5-carboxylate], for which the inhibition at 100 µM in test [1] (setting [3]) was determined as 22 ± 4%.
Turning to `CCOC(=O)c1c(C)nc(-c2ccccc2)c(C(=O)OCC)c1/C=C/c1ccccc1` [A], the Ki in test [1] (Table 11, read-out: Ki rA2A) is 2.6 µM.
On to `CCOc1cc(O)c2c(=O)c(OCC)c(-c3ccccc3)oc2c1` [Compound 3b, 3,7-Diethoxy-5-hydroxyflavone], for which the Ki in test [1] (Table 3, read-out: Ki rA2a) turned out to be 63.8 ± 18.8 µM.
As to `O=C1CC(c2ccccc2)Oc2ccccc21` (centres unmarked) [Compound 12, flavanone, reference compound], in test [2] (Table 4), the Ki was 32 ± 4.8 µM.
For the compound `O=c1c(O)c(-c2ccc(O)c(O)c2)oc2cc(O)cc(O)c12` [Compound 37, quercetin, reference compound], in test [1] (Table 6, read-out: K2 (rA2a)), the Ki turned out to be 6.99 ± 0.89 µM.
For `CCOC(=O)C1=C(C)NC(C)=C(C(=O)OCCCSc2ccccc2)C1C` (centres unmarked) [Compound 55], in test [1] (Table 9, read-out: Ki rA2A), the Ki was 7.1 µM.
For `CCOC(=O)C1=C(C)NC(C)=C(C(=O)OCC)C1c1cccc([N+](=O)[O-])c1` [Compound 62], the Ki in test [1] (Table 9, read-out: Ki rA2A) was 18.2 µM.
Take `COC(=O)C1=C(C)NC(C)=C([N+](=O)[O-])C1c1ccccc1C(F)(F)F` (centres unmarked) [Compound 69, reference compound]: in test [2], the “greater affinity to A1 than A2a adenosine receptors” value was “greater affinity to A1 adenosine receptors than A2a receptors”.
Same read-out and setting: to `COC(=O)C1=C(C)NC(C)=C([N+](=O)[O-])C1c1ccccc1C(F)(F)F` (centres unmarked) [Compound 70, reference compound] belongs “greater affinity to A1 adenosine receptors than A2a receptors”.
In the case of `CCOC(=O)C1=C(C)NC(C)=C(C(=O)OC)C1CCc1ccccc1` (centres unmarked) [Compound 74], the Ki in test [1] (Table 9, read-out: Ki rA2A) came out at 6.71 ± 2.06 µM.
Turning to `CCOC(=O)c1c(C)nc(-c2ccccc2)c(C(=O)OCC)c1C` [Compound 81], the Ki in test [1] (Table 10, read-out: Ki rA2a) stood at 28.4 µM.
Consider `CCOC(=O)C1=C(C)NC(C)=C(C(=O)OCC)C1/C=C/c1ccccc1` [Compound 84], for which the Ki in test [1] (Table 11, read-out: Ki rA2A) amounted to 9.23 ± 3.6 µM.
As for `CCOC(=O)C1=C(C)NC(C)=C(C(=O)OCc2ccccc2)C1/C=C/c1ccccc1` (centres unmarked) [Compound 85], the inhibition at 100 µM in test [1] (setting [6]) amounted to 14.4 ± 4%.
`CCOC(=O)C1=C(C)NC(c2ccccc2)=C(C(=O)OCC)C1CC` (centres unmarked) [Compound 86]: in test [1] (Table 11, read-out: Ki rA2A), the Ki amounted to 14.5 µM.
On to `CCOC(=O)C1=C(C)NC(c2ccccc2)=C(C(=O)OCc2ccccc2)C1C` (centres unmarked) [Compound 87], for which the Ki in test [1] (Table 11, read-out: Ki rA2A) was found to be 3.15 µM.
For `CCOC(=O)C1=C(C)NC(c2ccc(C)cc2)=C(C(=O)OCC)C1/C=C/c1ccccc1` (centres unmarked) [Compound 88], the inhibition at 100 µM in test [1] (setting [6]) amounted to 37%.
With `CCOC(=O)C1=C(C)NC(c2ccc(OC)cc2)=C(C(=O)OCC)C1/C=C/c1ccccc1` (centres unmarked) [Compound 89], the inhibition at 100 µM in test [1] (setting [7]) is under 10%.
On to `CCOC(=O)C1=C(C)NC(c2ccc(Cl)cc2)=C(C(=O)OCC)C1/C=C/c1ccccc1` (centres unmarked) [Compound 90], for which, in test [1] (setting [6]), the inhibition at 100 µM was 12 ± 7%.
As to `CCOC(=O)C1=C(C)NC(c2ccoc2)=C(C(=O)OCC)C1/C=C/c1ccccc1` (centres unmarked) [Compound 92], the inhibition at 100 µM in test [1] (setting [6]) turned out to be 35 ± 6%.
On to `CCOC(=O)C1=C(C)NC(c2ccsc2)=C(C(=O)OCC)C1/C=C/c1ccccc1` (centres unmarked) [Compound 93], for which the inhibition at 100 µM in test [1] (setting [7]) is under 10%.
As for `CCOC(=O)C1=C(C)NC(c2ccccc2)=C(C(=O)OCC)C1/C=C/c1ccccc1OC` (centres unmarked) [Compound 94], in test [1] (setting [6]), the inhibition at 100 µM is 17 ± 12%.
For `CCOC(=O)C1=C(C)NC(c2ccccc2)=C(C(=O)OCC)C1/C=C/c1ccccc1[N+](=O)[O-]` (centres unmarked) [Compound 95], in test [1] (setting [7]), the inhibition at 100 µM was under 10%.
As to `CCOC(=O)C1=C(C)NC(c2ccccc2)=C(C(=O)OCC)C1C=C(c1ccccc1)c1ccccc1` (centres unmarked) [Compound 97], the Ki in test [1] (Table 11, read-out: Ki rA2A) came to 8 µM.
Regarding `CCOC(=O)C1=C(C)NC(c2ccccc2)=C(C(=O)OCC)C1C#Cc1ccccc1` (centres unmarked) [Compound 109], the inhibition at 100 µM in test [1] (setting [3]) worked out at 25 ± 3%.
`CCOC(=O)C1=C(C)NC(c2ccccc2)=C(C(=O)OCC)C1c1ccco1` (centres unmarked) [Compound 115]: in test [1] (setting [4]), the inhibition at 100 µM was under 10%.
`CCOC(=O)C1=C(C)NC(c2ccccc2)=C(C(=O)OCc2ccccc2)C1C#Cc1ccccc1` (centres unmarked) [Compound 121]: in test [2] (setting [5]), the inhibition at 100 µM is 25 ± 4%.
Regarding `CCOC(=O)C1=C(c2ccccc2)NC(C)=C(C(=O)SCC)C1C#Cc1ccccc1` (centres unmarked) [Compound 130b], the Ki in test [1] (Table 12, read-out: Ki rA2A) was 5.15 ± 1.83 µM.
On to `CCNC(=O)C1=C(c2ccccc2)N(COCC)C(C)=C(C(=O)OCC)C1C#Cc1ccccc1` (centres unmarked) [Compound 140], for which, in test [1] (setting [3]), the inhibition at 100 µM worked out at 35%.
As to `CCCn1c(=O)n2nc(-c3ccco3)nc2c2cc(Cl)ccc21` [Compound 159, 9-Chloro-2-(2-furyl)[1,2,4]triazolo[1,5-c]quinazolin-6-propyl-5-one], the Ki in test [2] (Table 15) stood at 2 µM.
`CCOC(=O)C1=C(c2ccccc2)NC(C)=C(C(=O)OCC(O)CO)C1C#Cc1ccccc1` (centres unmarked) [Compound 212a]: the inhibition at 100 µM in test [1] (Table 14, 10^-4 M, read-out: displacement of specific binding rA2A) is under 10%.
With `CCOC(=O)C1=C(c2ccccc2)NC(C)=C(C(=O)OCC(O)CO)C1C#Cc1ccccc1` (centres unmarked) [Compound 213a], in test [1] (Table 14, 10^-4 M, read-out: % inhibition rA2A), the inhibition at 100 µM amounted to 39 ± 8%.

These data come from US6066642A, “Dihydropyridine-, pyridine-, benzopyran-4-one- and triazoloquinazoline derivative, their preparation and their use as adenosine receptor antagonists” (priority 1998, dated 2000).
